The record followed here is patent US9376421B2, “Compounds and methods for myotonic dystrophy therapy” (The Board of Trustees of the University of Illinois, priority 2014, dated 2016).

Each structure is given as a SMILES string. “Also recorded” adds a separate entry of the source.

Experiment [1] deals with (CUG)16. The experiment in a line: (CUG)16 cleavage screening gel assay. The format is biochemical. The conditions noted are these: ligand 100 μM, (CUG)16 100 nM, 12 h, pH 7.4, 37° C., EtBr stain. The method, then: FIG. 2. Cleavage screening gel. (CUG)16 (SEQ ID NO: 1) (100 nM) was incubated with ligands (100 μM) and (CUG)16 (SEQ ID NO: 1) (100 nM), 12 h, 37° C. The reaction mixture was loaded onto a 20% denaturing PAGE gel and RNA was detected by post-staining with EtBr.
The potential cleavage activity of 4-9 was screened using a simple gel shift assay with (CUG)16 (SEQ ID NO: 1). To screen the agents, each agent was incubated for 12 h with unlabeled (CUG)16 (SEQ ID NO: 1) at a final concentration of 100 μM at pH 7.4. The mixture was separated on an RNA denaturing gel and stained with EtBr (FIG. 2). No loss of (CUG)16 (SEQ ID NO: 1) intensity was observed upon treatment with 2, 7, or tris(2-aminoethyl)amine (10).
RNA was fast folded at 95° C. for 5 min, followed by placing in ice for 10 min. RNA with a final concentration of 100 nM was incubated with cleaving agents 100 μM (in screening assays) and with ligand 9 at different concentrations (5, 10, 50, 100 μM). The cleaving buffer was 50 mM Tris buffer (pH 7.4) containing 150 mM NaCl and 2 mM MgCl2. The final volume of the reaction mixture was 10 μL. The reaction was quenched by adding 8 μL of 8 M urea and 2 μL of RNA loading dye followed by heating at 95° C. for 5 min. The mixture was separated on a 20% RNA denaturing gel. For non-labeled RNA, the gel was stained with EtBr and observed under UV. […]

The subject of experiment [2] is (CCUG)6 / (CCUG)8. The experiment in a line: Ligand-RNA binding affinity, CCUG repeats. Particulars: (CCUG)8. The source says: Off target activity is a concern for any therapeutic agent but especially one designed to cleave RNA. To test the selectivity of agents 6 and 9, the screening gel assay described above was applied to other RNA targets, specifically cTNT32, (CCUG)8 (SEQ ID NO: 11), and HIV-1 frameshift site RNA (HIV FS) (FIG. 5a). Both 6 and 9 were quite selective. […] Thus, both similarly adopt stem-loop structures with internal loops within the stem, although obviously of different sequences. Differences between 6 and 9 were observed (FIG. 5) with the former cleaving (CCUG)8 (SEQ ID NO: 11), the toxic RNA involved in myotonic dystrophy type 2 (DM2). […] The ability to process the RNA directly parallels the corresponding ligand-RNA binding affinities. Thus, 1, which contains the acridine-triazine core of agent 6, complexes the (CCUG)6 (SEQ ID NO: 12) and (CUG)n sequences.

Experiment [3] has as its system DM1 Drosophila expressing i(CTG)480. The experiment in a line: External eye assay in DM1 Drosophila. The format is in vivo.
Experimental: Drosophila lines were cultured in standard cornmeal medium supplemented with dry yeasts. […] The gmr-GAL4 and 24B-GAL4 lines were used to drive UAS transgene expression in eye and muscles respectively. Ligands 2 and 9 were dissolved in ddH2O and mixed with fly food. Genetic crosses were set up in drug-containing fly food at 21.5° C. for external eye assay, and at 25° C. for larval crawling assay and real-time PCR analysis.
Experiment [4] deals with SV40 terminator mRNA in i(CUG)480 larvae. In words: SV40 mRNA level in i(CUG)480 larvae (real-time PCR). It is filed as in vivo, Drosophila. Particulars: relative to actin RNA. In general terms: Quantitative PCR measures a nucleic acid by following its amplification.

Consider `N=C(NCCCCNc1nc(N)nc(N)n1)c1ccc(C(=N)NCCCCNc2nc(N)nc(N)n2)cc1` [Ligand 2], for which the “loss of (CUG)16 intensity (RNA cleavage)” value in experiment [1] is reported as “No loss”. The “affinity toward (CCUG)8” value in experiment [2] was “no affinity”. For the same molecule, the “disease phenotype in DM1 fly eyes at 200 μM” value in experiment [3] (200 μM) is listed as “reversed the disease phenotype”. Also, the “neurodegenerative (glossy and rough-eye) phenotype” value in experiment [3] (in fly food, 6 d) is on record as “reversal of the disease phenotype but less effectively; also recorded: improved the neurodegeneration”. The “reduction of SV40 mRNA levels in i(CUG)480 larvae” value in experiment [4] is “did not”.
